The subject of data set [1] is cytokines IL-12p70, IL-4 and IFN-γ. The experiment in a line: Analysis of cytokine release into serum. The following applies: for ratio of cytokines IFN-γ/IL-4: 0.23 nmol intravenously, blood at 18 h (IFN-γ) and 3 h (IL-4), compared to α-GalCer. Type of data set: in vivo, C57BL/6 mice. The protocol:
Groups of C57BL/6 mice (n=3) are injected intravenously with 0.23 nmol of the indicated compounds.
Each compound of the invention is supplied as formulated product (see example 3), and diluted in water for delivery (0.23 nmol/mouse) by intravenous injection into the lateral tail vein. In humans the expected therapeutic dose lies in the 50-4800 (μg/m^2) range (Giaccone, Punt et al. 2002). Note, 0.23 nmol in a mouse is a human equivalent dose of 30 μg/m^2 for α-GalCer.
Blood is collected from the lateral tail vein at different time intervals after glycolipid administration. Serum is collected after blood has clotted, and levels of cytokines IL-12p70, IL-4 and IFN-γ are assessed by cytokine bead array technology (Biolpex, Biorad), according to the manufacturer's instructions.

A further data set has as its system B16.OVA melanoma. Description: Analysis of anti-tumour activity, B16.OVA melanoma challenge. Type of data set: in vivo, C57BL/6 mice. As to the method: Groups of C57BL/6 mice (n=5) are injected with 1×10^5 live B16.OVA tumour cells subcutaneously on day 0. On day 6 0.23 nmol of the indicated compounds (α-GalCer or CN161) mixed with OVA protein (200 μg) are administered intraveneously. The tumour size is monitored regularly with calipers until the first animal in each group reached 200 mm^2, at which point the whole group is culled.
Control animals are injected with the long peptide alone, α-GalCer alone, or left untreated. The mean tumour sizes per group (n=5)±SEM are shown.
Groups of C57BL/6 mice (n=5) receive a subcutaneous injection into the flank of 1×10^5 B16.OVA melanoma cells, which express a cDNA encoding the chicken ovalbumin (OVA) sequence. The different groups are treated 7 days later, when tumours are fully engrafted, by intravenous injection of one of the following; vaccines as indicated in text and figure legends. Mice are monitored for tumour growth every 3-4 days, and tumour size for each group is calculated as the mean of the products of bisecting diameters (+SEM). Measurements are terminated for each group when the first animal develops a tumour exceeding […].

In the next data set the test system is SVYDFFVWL-loaded targets. The experiment in a line: In vivo cytotoxic capacity of TRP-2 specific T cells after vaccination. Conditions: 0.23 nmol compound with long TRP-2 peptide (0.57 nmol) intravenously; targets injected 7 days after vaccination. The protocol:
Control animals are injected with the long peptide alone, or α-GalCer alone. […] To discriminate the targets from host tissue, the injected cells are labelled with the fluorescent dye carboxyfluorescein succinimidyl ester (CFSE). A cohort of syngeneic splenocytes (without peptide) labelled with the fluorescent dye cell tracker orange are also injected to serve as controls. Killing is defined as the percentage of peptide-loaded targets killed relative to control cells. Each treatment group contained 5 animals with mean percentage of killing per group±SEM shown.

Data set [2] has as its system C1498 acute leukemia cells. The experiment in a line: Analysis of anti-leukemia activity, C1498 challenge. Type of data set: in vivo, mice. The protocol:
The prophylactic vaccines consist of irradiated C1498 cells that are incubated with compounds of the invention for 24 h. Control animals are injected with irradiated C1498 cells alone, compound alone, or left untreated. The time to onset of leukemia-associated symptoms are shown. (A) Analysis of vaccines incorporating CN161. (B) Analysis of vaccines incorporating α-GalCer.
To generate cell-based vaccines, C1498 acute leukemia cells are cultured for 24 h in complete IMDM supplemented with 200 ng/ml of α-GalCer or 200 ng/ml CN161, washed three times with PBS, and γ-irradiated (150 Gy). Vaccines comprising of 7.5×10^5 cells are administered intravenously via the lateral tail vein. Mice are monitored for onset of leukemia-associated symptoms, such as weight loss, hunching or reduced grooming. All experiments are conducted with five animals per treatment group, with controls including a leukemia-only group.

Another data set relates to human NKT cells. Description: Proliferation of human NKT cells in PBMC culture. Conditions: PBMC from one donor, 7 days culture with IL-2. The data set is classed as cell-based. As to the method:
Peripheral blood mononuclear cells from one donor are cultured for 7 days with different doses of the indicated compounds in the presence of IL-2, and then the percentages of NKT cells in the final cultures determined by flow cytometry with fluorescent α-GalCer-loaded CD1d tetramers and anti-CD3. Data are expressed as percentage of NKT cells (α-GalCer/CD1d tetramer and anti-CD3-binding cells) of total T cells (all anti-CD3-binding cells).
Peripheral blood is drawn into heparinized tubes, diluted 1:1 in PBS, and layered over a sodium diatrizoate and polysaccharide solution (Lymphoprep; Axis-Shield, Oslo, Norway) before centrifugation at 800×g for 25 minutes at room temperature to collect the peripheral blood mononuclear cell (PBMC) fraction, which contains NKT cells. To assess proliferation of NKT cells, PBMC (2×10^5 per well) are cultured at 37° C. in Iscove's Modified Dulbecco's Medium with 5% human AB serum and the indicated concentrations of α-GalCer, or CN161, with recombinant human IL-2 50 U/mL (Chiron Corporation, Emeryville, Calif.) added after 24 hours. After 7 days of culture, the cells are analysed by flow cytometry, using fluorescent soluble CD1d tetramers that have been loaded with α-GalCer to identify the NKT cells. […]

For data set [3] the following is noted: cited from earlier work.
For data set [4] the following is noted: in vivo; cited from earlier work.
[5] abbreviates: cell-based vaccine: irradiated C1498 cells incubated with compound (200 ng/ml) for 24 h, intravenously.

“Also recorded” adds a separate entry of the source.

Consider `CCCCCCCCCCCCCCCCCCCCCCCCCC(=O)N[C@@H](CO[C@H]1O[C@@H]2CO[C@@H]2[C@H](O)[C@H]1O)[C@H](O)[C@H](O)CCCCCCCCCCCCCC` [CN154, (2S,3S,4R)-1-(4,6-Anhydro-α-D-galactopyranosyloxy)-2-hexacosanoylamino-3,4-octadecandiol], for which the “ratio of cytokines IFN-γ/IL-4” value in data set [1] is listed as “higher ratio of IFN-γ/IL-4”.

Regarding `CCCCCCCCCCCCCCCCCCCCCCCCCC(=O)N[C@@H](C[C@]1(O)O[C@H](CSSC[C@H]2O[C@@](O)(C[C@H](NC(=O)CCCCCCCCCCCCCCCCCCCCCCCCC)[C@H](O)[C@H](O)CCCCCCCCCCCCCC)[C@H](O)[C@@H](O)[C@H]2O)[C@H](O)[C@H](O)[C@H]1O)[C@H](O)[C@H](O)CCCCCCCCCCCCCC` [CN161, 6,6′-Disulfanediylbis[6-deoxy-1-((2S,3S,4R)-3,4-dihydroxy-2-(hexacosanoylamino)octadecyl)-α-D-galactopyranose]], in data set [1], the “ratio of cytokines IFN-γ/IL-4” value is “higher ratio of IFN-γ/IL-4”. In addition, the “antitumour activity against B16.OVA melanoma (tumour growth)” value in the data set with B16.OVA melanoma (0.23 nmol compound with long TRP2 peptide (0.57 nmol) intravenously) is “delayed tumour growth; also recorded: anti-tumour activity”. Besides, in the data set on B16.OVA melanoma (compound with long OVA peptide KISQAVHAAHAEINEAGRESIINFEKLTEWT intravenously), the “antitumour activity against B16.OVA melanoma” value was “equivalent anti-tumour activity”. Besides, the “vaccine adjuvant activity, progression of B16.OVA melanoma” value in the data set on B16.OVA melanoma (therapeutic challenge, 0.23 nmol compound mixed with OVA protein (200 μg) intravenously) is given as “potent vaccine adjuvant activity”. The “cytotoxic response (killing of peptide-loaded targets)” value in the data set on SVYDFFVWL-loaded targets was “potent antigen-specific cytotoxicity; also recorded: greater cytotoxic response”. Moreover, the “anti-leukemia activity (time to onset of leukemia-associated symptoms)” value (“anti-leukemia activity” for short) in data set [2] (setting [5]) was “anti-leukemia activity; also recorded: significant protection”; in data set [2] (compound injected alone) it was “anti-leukemia activity; also recorded: can provide protection”. In addition, in the data set on human NKT cells, the “proliferation of iNKT cells (percentage of NKT cells of total T cells)” value was “able to induce the proliferation of iNKT cells”.

Turning to `CCCCCCCCCCCCCCCCCCCCCCCCCC(=O)N[C@@H](CO[C@H]1O[C@H](CO)[C@H](O)[C@H](O)[C@H]1O)[C@H](O)[C@H](O)CCCCCCCCCCCCCC` [α-GalCer, α-Galactosylceramide], in data set [1] (after injection), the “time of peak IFN-γ level in the serum” value was above 12 h, the “time of peak IL-12p70 level in the serum” value turned out to be 6 h and the “time of peak production of IL-4 in the serum” value was 2 to 3 h. Moreover, in data set [2] (setting [5]), the “anti-leukemia activity” value is listed as “significant protection”. In data set [2] (compound injected alone), the “anti-leukemia activity” value was “not active and not”. Also, the solubility result in data set [3] was “poor solubility”. Further, the “efficacy in human clinical trials” value in data set [4] is recorded as “lack of efficacy”.

The values are drawn from patent US9717790B2, “Sphingoglycolipid analogues” (Victoria Link Limited, priority 2013, dated 2017).
